# According to US8546579B2, “Bicycloheteroaryl compounds as P2X7 modulators and uses thereof” (Evotec (US) Inc., priority 2006, dated 2013):
# Target: T1, P2X7 receptor (Homo sapiens, UniProt Q99572)
# T1 construct: host or cells: THP-1 cells differentiated with LPS and IFN-γ
# T1 sequence (Q99572 1-595): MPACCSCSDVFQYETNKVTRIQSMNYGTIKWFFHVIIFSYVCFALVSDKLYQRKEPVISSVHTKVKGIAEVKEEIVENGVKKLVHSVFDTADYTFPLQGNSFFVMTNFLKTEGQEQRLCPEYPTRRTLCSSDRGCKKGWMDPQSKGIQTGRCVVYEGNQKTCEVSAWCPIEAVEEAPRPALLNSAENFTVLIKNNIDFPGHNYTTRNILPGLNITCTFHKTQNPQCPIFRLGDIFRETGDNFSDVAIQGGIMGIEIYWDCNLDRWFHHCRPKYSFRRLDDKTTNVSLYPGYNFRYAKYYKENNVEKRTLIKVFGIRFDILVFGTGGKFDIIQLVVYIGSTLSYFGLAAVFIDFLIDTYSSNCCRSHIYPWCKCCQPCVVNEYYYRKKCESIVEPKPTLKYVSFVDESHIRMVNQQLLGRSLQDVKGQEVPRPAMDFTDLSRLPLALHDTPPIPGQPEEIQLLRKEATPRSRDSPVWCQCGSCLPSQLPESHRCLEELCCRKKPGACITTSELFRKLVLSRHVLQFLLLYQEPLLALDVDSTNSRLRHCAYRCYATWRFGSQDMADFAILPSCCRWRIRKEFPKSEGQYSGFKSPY
# Assay: IL-1β release assay in differentiated THP-1 cells stimulated with BzATP (Example 9)
# Format: cell-based
# Parameters: inhibition: dose or concentration left out as unconfirmed
# Settings: THP-1; read-out: IL-1β % Inhib.
# In short: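 THP-1 cells differentiated 16 h with LPS and IFN-γ (100 ng/mL each), re-primed 2 h with LPS, then compound-pretreated 30 min before 250 uM BzATP for 45 min. Supernatant IL-1β quantified by ELISA; background-adjusted percent inhibition fitted to four-parameter logistic for IC50.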
row,Structure (SMILES),inhibition [%]
1,O=C(CCCc1ccccc1)Nc1cccc2c(=O)n(CCCN3CCCC3=O)ccc12 [Compound 1525],0 to 25
2,O=C(Nc1cccc2c(=O)n(CCCN3CCCC3=O)ccc12)c1cc2ccccc2o1 [Compound 1526],0 to 25
3,O=C(Cc1ccc2c(c1)OCO2)Nc1cccc2c(=O)n(CCCN3CCCC3=O)ccc12 [Compound 1527],0 to 25
4,COc1cc(CC(=O)Nc2cccc3c(=O)n(CCCN4CCCC4=O)ccc23)cc(OC)c1 [Compound 1528],0 to 25
5,COc1c(C)cc(C(=O)Nc2cccc3c(=O)n(CCCN4CCCC4=O)ccc23)cc1C [Compound 1529],0 to 25
6,Cc1ccc(C(=O)Nc2cccc3c(=O)n(CCCN4CCCC4=O)ccc23)cc1Cl [Compound 1530],26 to 50
7,O=C(Nc1cccc2c(=O)n(CCCN3CCCC3=O)ccc12)C(O)c1ccccc1Cl (stereo not drawn) [Compound 1531],26 to 50
8,O=C1CCCN1CCCn1ccc2c(NC(=O)[C@@]34C[C@@H]5C[C@@H](C[C@@H]3C5)C4)cccc2c1=O [Compound 1532],0 to 25
9,Cc1c(Cl)cccc1C(=O)Nc1cccc2c(=O)n(CCCN3CCCC3=O)ccc12 [Compound 1534],51 to 75
10,COc1ccc(CC(=O)Nc2cccc3c(=O)n(CCCN4CCCC4=O)ccc23)c(OC)c1 [Compound 1535],0 to 25
11,Cc1cc(C(=O)Nc2cccc3c(=O)n(CCCN4CCCC4=O)ccc23)ccc1F [Compound 1536],0 to 25
12,CCOc1ccccc1CC(=O)Nc1cccc2c(=O)n(CCCN3CCCC3=O)ccc12 [Compound 1538],26 to 50
13,COc1ccc(CC(=O)Nc2cccc3c(=O)n(CCCN4CCCC4=O)ccc23)cc1C [Compound 1539],0 to 25
14,Cc1ccc(Cl)c(C(=O)Nc2cccc3c(=O)n(CCCN4CCCC4=O)ccc23)c1 [Compound 1540],0 to 25
15,Cc1ccc(Cl)cc1C(=O)Nc1cccc2c(=O)n(CCCN3CCCC3=O)ccc12 [Compound 1541],0 to 25
16,Cc1cccc(CCC(=O)Nc2cccc3c(=O)n(CCCN4CCCC4=O)ccc23)c1 [Compound 1542],0 to 25
17,O=C(Nc1cccc2c(=O)n(CCCN3CCCC3=O)ccc12)c1cc2cc(Cl)ccc2o1 [Compound 1543],0 to 25
18,COc1ccc(C(=O)Nc2cccc3c(=O)n(CCCN4CCCC4=O)ccc23)cc1C [Compound 1545],0 to 25
19,Cc1ccc(CCC(=O)Nc2cccc3c(=O)n(CCCN4CCCC4=O)ccc23)c(C)c1 [Compound 1546],0 to 25
20,O=C(CCc1cccc(Cl)c1)Nc1cccc2c(=O)n(CCCN3CCCC3=O)ccc12 [Compound 1547],0 to 25
21,COc1ccc(C(=O)Nc2cccc3c(=O)n(Cc4ccc(OC(F)(F)F)cc4)ccc23)c(C)c1 [Compound 1548],0 to 25
22,C[C@H]1CC[C@H](C(=O)Nc2cccc3c(=O)n(Cc4ccc(OC(F)(F)F)cc4)ccc23)CC1 [Compound 1549],0 to 25

row,Structure (SMILES),inhibition [%]
1,COc1cccc(CCC(=O)Nc2cccc3c(=O)n(Cc4ccc(OC(F)(F)F)cc4)ccc23)c1 [Compound 1552],0 to 25
2,Cc1cc(C)c(CC(=O)Nc2cccc3c(=O)n(Cc4ccc(OC(F)(F)F)cc4)ccc23)c(C)c1 [Compound 1553],0 to 25
3,Cc1ccc(C)c(CC(=O)Nc2cccc3c(=O)n(Cc4ccc(OC(F)(F)F)cc4)ccc23)c1 [Compound 1554],0 to 25
4,CCOc1cccc(C(=O)Nc2cccc3c(=O)n(Cc4ccc(OC(F)(F)F)cc4)ccc23)c1 [Compound 1556],0 to 25
5,O=C(CCc1ccc2c(c1)OCO2)Nc1cccc2c(=O)n(Cc3ccc(OC(F)(F)F)cc3)ccc12 [Compound 1558],0 to 25
6,Cc1cc(C(=O)Nc2cccc3c(=O)n(Cc4ccc(OC(F)(F)F)cc4)ccc23)ccc1Cl [Compound 1559],0 to 25
7,O=C(Nc1cccc2c(=O)n(Cc3ccc(OC(F)(F)F)cc3)ccc12)c1cc(Cl)ccc1Cl [Compound 1561],0 to 25
8,Cc1ccccc1C(=O)Nc1cccc2c(=O)n(Cc3ccc(OC(F)(F)F)cc3)ccc12 [Compound 1562],0 to 25
9,Cc1ccc(C(=O)Nc2cccc3c(=O)n(Cc4ccc(OC(F)(F)F)cc4)ccc23)c(C)c1 [Compound 1564],0 to 25
10,Cc1ccc(C)c(C(=O)Nc2cccc3c(=O)n(Cc4ccc(OC(F)(F)F)cc4)ccc23)c1 [Compound 1565],0 to 25
11,CC(C(=O)Nc1cccc2c(=O)n(Cc3ccc(OC(F)(F)F)cc3)ccc12)c1ccccc1 (stereo not drawn) [Compound 1570],0 to 25
12,COc1ccccc1CCC(=O)Nc1cccc2c(=O)n(Cc3ccc(OC(F)(F)F)cc3)ccc12 [Compound 1571],0 to 25
13,COc1ccc(CCC(=O)Nc2cccc3c(=O)n(Cc4ccc(OC(F)(F)F)cc4)ccc23)cc1 [Compound 1572],0 to 25
14,O=C(Cc1cccc2ccccc12)Nc1cccc2c(=O)n(Cc3ccc(OC(F)(F)F)cc3)ccc12 [Compound 1573],0 to 25
15,O=C(Cc1ccccc1Cl)Nc1cccc2c(=O)n(Cc3ccc(OC(F)(F)F)cc3)ccc12 [Compound 1576],0 to 25
16,COc1ccc(OC)c(CC(=O)Nc2cccc3c(=O)n(Cc4ccc(OC(F)(F)F)cc4)ccc23)c1 [Compound 1578],0 to 25
17,COc1ccc(CC(=O)Nc2cccc3c(=O)n(Cc4ccc(OC(F)(F)F)cc4)ccc23)cc1 [Compound 1583],26 to 50
18,CCOc1ccc(CC(=O)Nc2cccc3c(=O)n(Cc4ccc(OC(F)(F)F)cc4)ccc23)cc1 [Compound 1584],0 to 25
19,O=C(CCCc1ccccc1)Nc1cccc2c(=O)n(Cc3ccc(OC(F)(F)F)cc3)ccc12 [Compound 1586],0 to 25
20,O=C(Nc1cccc2c(=O)n(Cc3ccc(OC(F)(F)F)cc3)ccc12)c1cc2ccccc2o1 [Compound 1587],0 to 25
21,COc1cc(CC(=O)Nc2cccc3c(=O)n(Cc4ccc(OC(F)(F)F)cc4)ccc23)cc(OC)c1 [Compound 1589],0 to 25

# Other lines, results leading:
row,inhibition [%],Structure (SMILES)
1,0 to 25,CCOc1ccc(CC(=O)Nc2cccc3c(=O)n(CCCN4CCCC4=O)ccc23)cc1 [Compound 1523]
2,0 to 25,Cc1ccc(CC(=O)Nc2cccc3c(=O)n(CCCN4CCCC4=O)ccc23)cc1 [Compound 1524]
3,26 to 50,O=C(Nc1cccc2c(=O)n(CCCN3CCCC3=O)ccc12)c1cccc2c1OCCO2 [Compound 1533]
4,26 to 50,O=C(CCc1ccc(Cl)cc1)Nc1cccc2c(=O)n(CCCN3CCCC3=O)ccc12 [Compound 1537]
5,0 to 25,Cc1cccc(C(=O)Nc2cccc3c(=O)n(CCCN4CCCC4=O)ccc23)c1Cl [Compound 1544]
6,0 to 25,Cc1ccccc1CCC(=O)Nc1cccc2c(=O)n(Cc3ccc(OC(F)(F)F)cc3)ccc12 [Compound 1550]
7,0 to 25,O=C(Nc1cccc2c(=O)n(Cc3ccc(OC(F)(F)F)cc3)ccc12)c1ccc(-c2ccccc2)o1 [Compound 1551]
8,0 to 25,COc1ccc(C(=O)Nc2cccc3c(=O)n(Cc4ccc(OC(F)(F)F)cc4)ccc23)cc1Cl [Compound 1555]
9,0 to 25,O=C(CCc1ccccc1Cl)Nc1cccc2c(=O)n(Cc3ccc(OC(F)(F)F)cc3)ccc12 [Compound 1557]
10,0 to 25,O=C(Nc1cccc2c(=O)n(Cc3ccc(OC(F)(F)F)cc3)ccc12)c1ccccc1Cl [Compound 1560]
11,0 to 25,Cc1cccc(C(=O)Nc2cccc3c(=O)n(Cc4ccc(OC(F)(F)F)cc4)ccc23)c1C [Compound 1563]
12,26 to 50,COc1cc(OC)cc(C(=O)Nc2cccc3c(=O)n(Cc4ccc(OC(F)(F)F)cc4)ccc23)c1 [Compound 1566]
13,0 to 25,Cc1cccc(C(=O)Nc2cccc3c(=O)n(Cc4ccc(OC(F)(F)F)cc4)ccc23)c1 [Compound 1567]
14,0 to 25,CCOc1ccc(C(=O)Nc2cccc3c(=O)n(Cc4ccc(OC(F)(F)F)cc4)ccc23)cc1 [Compound 1568]
15,0 to 25,O=C(Nc1cccc2c(=O)n(Cc3ccc(OC(F)(F)F)cc3)ccc12)c1ccc2ccccc2c1 [Compound 1574]
16,0 to 25,O=C(Cc1ccccc1F)Nc1cccc2c(=O)n(Cc3ccc(OC(F)(F)F)cc3)ccc12 [Compound 1575]
17,0 to 25,COc1ccccc1CC(=O)Nc1cccc2c(=O)n(Cc3ccc(OC(F)(F)F)cc3)ccc12 [Compound 1577]
18,0 to 25,Cc1ccccc1CC(=O)Nc1cccc2c(=O)n(Cc3ccc(OC(F)(F)F)cc3)ccc12 [Compound 1579]
19,0 to 25,COc1cccc(CC(=O)Nc2cccc3c(=O)n(Cc4ccc(OC(F)(F)F)cc4)ccc23)c1 [Compound 1580]
20,0 to 25,COc1ccc(CC(=O)Nc2cccc3c(=O)n(Cc4ccc(OC(F)(F)F)cc4)ccc23)cc1OC [Compound 1581]
21,0 to 25,Cc1cccc(CC(=O)Nc2cccc3c(=O)n(Cc4ccc(OC(F)(F)F)cc4)ccc23)c1 [Compound 1582]
22,0 to 25,Cc1ccc(CC(=O)Nc2cccc3c(=O)n(Cc4ccc(OC(F)(F)F)cc4)ccc23)cc1 [Compound 1585]
23,0 to 25,O=C(Cc1ccc2c(c1)OCO2)Nc1cccc2c(=O)n(Cc3ccc(OC(F)(F)F)cc3)ccc12 [Compound 1588]
